From patent publication US12350267B2, “Bile acid recycling inhibitors for treatment of pediatric cholestatic liver diseases” (SHIRE HUMAN GENETIC THERAPIES, INC., priority 2011, dated 2025)

Key:
[1] = test system: fecal bile acid excretion and plasma bile acid concentrations; test: ZDF rat study of 264W94: fecal bile acid excretion and plasma bile acid concentrations; format: in vivo, Male Zucker diabetic fatty rats (ZDF/GmiCrl-fa/fa); conditions: 2 weeks
Procedure: Animal preparation. Male Zucker diabetic fatty rats (ZDF/GmiCrl-fa/fa) were purchased from Charles River (Raleigh, NC) and housed under controlled conditions (12:12 light-dark cycle, 24° C. and 50% relative humidity) with free access to rodent food (Purina 5008, Harlan Teklad, Indianapolis, IN). All rats arrived at seven weeks of age (±3 days). After a one-week acclimation period, rats were anesthetized with isoflurane (Abbott Laboratories, IL) and tail-vein blood samples were collected at 9 am without fasting. Blood glucose levels were measured using a glucometer (Bayer, Leverkusen, Germany). In order to ensure balanced treatment groups, ZDF rats were assigned to six treatment groups based upon baseline glucose: vehicle (0.5% HPMC, 0.1% Tween80) and five doses of 264W94 (0.001, 0.01, 0.1, 1, 10 mg/kg). All treatments were given via oral gavage twice a day and animals were followed for two weeks with blood samples collected from tail vein at the end of each week at 9 am without fasting. Fecal samples were collected for 24 hours during the second week of treatment.
Measurement of clinical chemistry parameters. Non-esterified fatty acids (NEFA), bile acids, and bile acids in fecal extraction were measured using the Olympus AU640 clinical chemistry analyzer (Beckman Coulter, Irving, TX).

[2] = test system: Postprandial Total Serum Bile Acids; test: Time to onset of activity of LUM001 on postprandial serum bile acids in dogs; format: in vivo, Beagle dogs; conditions: dog; dose increased above ED50 level to 1 mg/kg
Procedure: Animal Study on the Duration of Action and Time to Onset of ASBTI Activity of a Single Oral Dose of LUM001 on Postprandial Total Serum Bile Acids in Beagle Dogs
Test Compound: LUM001—Form I
(§1) Dosage preparation and administration: LUM001 was dissolved in water at concentrations that required the administration of 0.2 ml/kg of solution. Solutions were placed into gelatin capsules, Torpac Inc., size 13 Batch 594, East Hanover NJ, and administered orally.
(§2) Dogs: Male beagle dogs were obtained from Covance Research Products, Cumberland VA or Marshall Farms USA, Inc., North Rose NY. A total of 20 dogs, 1 to 5 years old, 6.8 to 15.6 kg body weight, were used in these experiments. The dogs were conditioned to a 12 hour light/dark cycle and maintained on a feeding restriction of 1 hour per day access to food (Richman Standard Certified Canine Diet #5007, PMI Nutrition, Inc., St Louis MO) from 7 to 8 AM. They were trained to eat a special meal promptly within 20 minutes when presented (1 can. 397 g, Evanger's 100% Beef for Dogs, Evanger's Dog and Cat Food Co., Inc., Wheeling IL, mixed with 50 g of sharp cheddar cheese).
Serum Total Bile Acid (SBA) Measurement: SBA was measured by an enzymatic assay. SBA values are expressed as μg of total bile acids/ml of serum. […]

[3] = test system: Postprandial Total Serum Bile Acids; test: Duration of action of LUM001 on dog serum bile acids, Method 2 (dosing before feeding); format: in vivo, Beagle dogs; conditions: dogs n=9, 0.05 mg/kg (2nd dose column), dosing time 0 hr, feeding time 2 hr
Procedure: as §1, §2
Serum Total Bile Acid (SBA) Measurement: SBA was measured by an enzymatic assay. SBA values are expressed as μg of total bile acids/ml of serum.
Experiments to Measure the Duration of Action of LUM001: In dogs a single experimental meal produces a postprandial rise in SBA that is elevated to a peak at 1 hour after feeding and constant for an additional 3 hours. Previous experiments (2) indicate that LUM001 remains active for more than 4.5 hours. […]

[4] = test system: serum bile acids and fecal bile acids; test: Phase 1 ascending multiple oral doses of LUM001 in healthy subjects: serum and fecal bile acids; format: in vivo; conditions: healthy adult subjects; multiple oral doses qAM, 28 days
Procedure: A Randomized, Double-Blind, Placebo Controlled, Safety, Tolerability, Pharmacokinetic, and Pharmacodynamic Study of Ascending Multiple Oral Doses of LUM001 in Healthy Subjects
This Phase 1 study was a randomized, double-blind, placebo-controlled study of ascending multiple oral doses of LUM001 in healthy, adult subjects. This study was conducted at a single center. There were 13 LUM001 dosing panels: 10, 20, 60, 100, and 20 mg every morning (qAM) (2) (i.e., the regimen was tested a second time in the study), 5 mg every evening (qPM), 0.5, 1, 2.5, 5, 2.5 (2), 5 (2), and 0.5 to 5 mg qAM dose titration. Most of the dosing panels included subjects treated with matching placebo. […]
SBA were analyzed as part of the routine clinical analysis of the serum samples collected at each time point.
Fecal Bile Acid Analysis: Fecal samples were collected for all panels except the dose-titration panel, 2.5 (2) and 5 mg (2), on Days 9 through 14 and 23 through 28 (data shown in FIG. 4). Twenty-four hour FBA excretions were quantified by Pharmacia for Days 9 through 14 and 23 through 28. […] The weight of each 24-hour fecal collection was recorded on the CRFs. […]
An aliquot for each 24-hour fecal sample collected on Days 23 through 28 was combined, homogenized, and analyzed for bile acid species concentrations by ANAPHARM. […]

[5] = Pharmacokinetics of LUM001 in pediatric subjects (study NB-00-02-014); format: in vivo; conditions: measured on day eight
Procedure: LUM001 has been administered to forty patients under the age of 18 years old. […] The drug was administered once-a-day (QD) in the morning for fourteen days. […] These doses are similar to those using to treat children with cholestatic diseases.

[6] = test system: Postprandial Total Serum Bile Acids; conditions: dog; previous experiments (2); cited from earlier work
[7] = test system: plasma bile acid levels; test: Plasma bile acid levels of ZDF rats after ascending doses of SC-435 and LUM002; format: in vivo, Male ZDF rats; conditions: ZDF rats n=4; oral gavage twice a day for 2 weeks; all doses (SC-435 1, 10 or 30 mg/kg; LUM002 0.3, 1, 3, 10 or 30 mg/kg)
Procedure: (§3) FIG. 2. Plasma bile acid levels of ZDF rats after administration of ascending doses of SC-435 and LUM002. Male ZDF rats (n=4) were administered vehicle, SC-435 (1, 10 or 30 mg/kg) or LUM002 (0.3, 1, 3, 10 or 30 mg/kg) by oral gavage twice a day for 2 weeks. Plasma bile acid levels were determined at the end of the second week. Data are expressed as mean values±SEM.
as §3, with “Plasma” for “FIG. 2. Plasma”, “week. […]” for “week.”

[8] = ZDF rats, oral gavage twice a day

Question: Which results are given for CCCC[C@]1(CC)CS(=O)(=O)c2cc(OC)c(OC)cc2[C@@H](c2ccccc2)N1 [Compound 264W94]?
Answer: Fecal bile acid concentrations elevated compared to vehicle treated rats ([1]; 0.001-10 mg/kg oral gavage twice a day, maximum elevation (up to)): up to 6.5 fold; Plasma bile acid concentrations ([1]; ZDF rats, 0.001-10 mg/kg oral gavage twice a day): decreased dose-dependently; ED50 for elevation of fecal bile acid concentrations [1, 8]: 0.17 mg/kg; Fecal NEFA [1, 8]: slightly increased

Question: For CCCCC1(CCCC)CS(=O)(=O)c2ccc(N(C)C)cc2[C@@H](c2ccc(OCc3ccc(C[N+]45CCN(CC4)CC5)cc3)cc2)[C@H]1O [LUM001], which “Onset time to significant SBA lowering versus ED50 dose” value [2] is on record?
Answer: The value was “did not shorten”.

Question: And the “Serum Bile Acid, Mean” value [3]?
Answer: The value was 1.7 µg/mL.

Question: And the Fecal bile acids [4]?
Answer: Its Fecal bile acids is “significant increase”.

Question: And the Serum bile acids [4]?
Answer: Its Serum bile acids is “significant reduction”.

Question: And the “Average serum drug exposure” value ([5]; Subject 0510, 5.0 mg QD (168.4 μg/kg))?
Answer: Its value is 0,0 ng/ml.

Question: What about the “Systemic exposure / absorption by the children” value ([5]; patients under 18, QD in the morning) of the same molecule?
Answer: The value was “minimally absorbed”.

Question: And the “Time LUM001 remains active (previous experiments)” value [6]?
Answer: The value was “more than 4.5 hours”.

Question: Which “Plasma bile acid levels” value [7] does the source give for CCCC[C@]1(CC)CS(=O)(=O)c2ccc(N(C)C)cc2[C@@H](c2cccc(NC(=O)N[C@@H]3O[C@H](COS(=O)(=O)[O-])[C@@H](O)[C@H](OCc4ccccc4)[C@H]3O)c2)[C@H]1O.[K+] [LUM002] here?
Answer: The value was “decreased”.

Question: Which “Plasma bile acid levels” value [7] does the source give for CCCCC1(CCCC)CS(=O)(=O)c2ccc(N(C)C)cc2[C@@H](c2ccc(OCCCC[N+]34CCN(CC3)CC4)cc2)[C@H]1O.CS(=O)(=O)[O-] [SC-435, 1-[4-[4-[(4R,5R)-3,3-dibutyl-7-(dimethylamino)-2,3,4,5-tetrahydro-4-hydroxy-1,1-dioxido-1-benzothiepin-5-yl]phenoxy]butyl]4-aza-1-azoniabicyclo[2.2.2]octane methanesulfonate salt, reference compound] here?
Answer: Its value is “decreased”.
